Data published in patent publication US7022484B2, “Methods for treating neuropathological states and neurogenic inflammatory states and methods for identifying compounds useful therein” (Board of Regents, The University of Texas System, priority 2000, dated 2006).

Assays:
[1] = system: NMDA receptor subunit NR1; experiment: Immunocytochemical localization of NMDA receptor subunit NR1 in spinal cord of arthritic rats; format: in vivo, rat; details: 4 hours, Genistein 1 mM spinal pre-treatment, cycloheximide 100 mg/kg i.p.
Description: Cycloheximide (100 milligrams per kilogram (mg/kg) intraperitoneal (i.p.) was used in some studies to determine if the alterations observed for the NMDA NR1 receptor subunit could be attributed to newly synthesized NR1 protein.
Twenty-four rats in 3 separate groups were used for immunocytochemical studies. One group of rat (n=8) was a naive control. The other 2 groups (n=16) of rats received surgical placement of the microdialysis fiber placement. On the day after microdialysis fiber placement, the animals were treated spinally with either Genistein (1 mM) or vehicle (50% DMSO in aCSF) for 1.5 hours (n=8 for each group). Then the left knee joint of all sixteen rats was injected with 0.1 ml of kaolin and carrageenan.
Animals were anesthetized and transcardially perfused with a brief warm saline rinse followed by fixative solution (4% paraformaldehyde in 0.1 M phosphate buffer, pH 7.4). The tissues were soaked overnight in 30% buffered sucrose and cut at 30 microns on a sliding microtome. For light microscopy, the tissues from animals (n=8) were permeabilized with a 50% buffered ethanol treatment. Tissue sections were then stained immunocytochemically for glutamate receptor subunit NR1 and phospho-NR1. Primary antibodies to be used for staining include anti-NMDA NR1 NMDA receptor (0.5–1 milligrams per milliliter (mg/ml)) purchased from Chemlcon Inc. (Pittsburgh, Pa.). Other neurotransmitter and receptor primary antibodies against NMDA NR2C, mGluR1, and mGluR5 were used as stain specificity controls. The primary antibodies were diluted in phosphate buffered saline (PBS, pH 7.6) with 0.1% BSA for overnight incubation on the spinal cord tissues. After washing in PBS, the tissue sections were incubated in the appropriate secondary antibody, either anti-mouse or anti-rabbit IgG (1:100, 30 minutes) and in avidin-biotin complex (ABC, 1:100, Vector Laboratories, Burlingame, Calif.). Sections were reacted with diaminobenzidine (DAB) solution (1.5 mg/ml) as the chromogen and peroxide (0.5 mg/ml) to produce a dense reaction product. To further intensify the reaction product particularly for visualization of nuclear rings, some tissues were reacted with colloidal gold conjugated IgG and reacted with a silver chloride solution to produce an intense black reaction product (Takizawa et al., J. Histochemistry & Cytochemistry, 42, 1615–1623 (1994)).
Immunocytochemical controls included sections processed in the absence of the primary or secondary antibody or ABC reagents. The specificity of the transmitter antibodies was confirmed by appearance of a single band by Western blot. In addition to use of the C-terminus NR1 antibody from ChemIcon, an antibody directed to the N-terminus of the NR1 protein was used as control (1 mg/ml; BD PharMingen, San Diego, Calif.). […]

TNFα = TNFα release by ELISA from SW982 synovial cells treated with NMDA and ACPD; format: cell-based, human; details: 24 hours, NMDA (5 mM) and ACPD (5 mM), K252a (100 nM)
Description: The cultured cell lines used in these studies were the human neuroblastoma clonal line, SHSY5Y, and the human synovial sarcoma clonal line, SW982, both available through the American Tissue Type Culture Collection (item number CRL 2266 and HTB-93, respectively). Cells were grown in Dulbecco's Modification of Eagles Medium (DMEM) without L-glutamine, with 4.5 grams/Liter glucose, and with 10% bovine fetal serum in a tissue culture incubator at 37° C. in a gaseous mixture of O2/CO2. Cells were routinely split as necessary to maintain proper cell density. Cells were removed from plates by adding TRYPSIN/EDTA in Hank's Balanced Salt solution. After cell counts, approximately 10,000 cells were plated per well in a culture dish. For experiments, the cells were plated into 35 mm Petri dishes or 6- or 24-well plates as needed.
For detection of released Tumor Necrosis Factor alpha (TNFα) and some western blot experiments, cells were exposed to the two glutamate agonists NMDA (5 mM) and ACPD (5 mM), in the presence or absence of the tyrosine kinase inhibitors Genistein […] or K252a (100 nM). […]
The release of the inflammatory mediator and initiator of inflammatory cascades, TNFα was measured by ELISA using a commercially available kit (R&D Quantikine, Catalog Number DTA50) specific for human TNFα. […]

rat arthritis model [2] = experiment: Knee joint circumference and joint temperature in kaolin/carrageenan knee joint inflammation model; format: in vivo; details: 4 hours after kaolin/carrageenan; spinal pre-treatment
Description: (§1) An acute inflammatory response restricted to the knee joint can be induced by the injection of 3% kaolin and 3% carrageenan (in sterile saline; 0.1 ml; pH 7.4) into the joint cavity while the animal is briefly anesthetized with sodium methohexital (Brevital, 60 mg/kg, i.p.). Kaolin and carrageenan were obtained from Fisher Scientific, St. Louis, Mo. The knee joint is flexed manually until the rat awakes (approximately 5–10 minutes). In this arthritis model in the awake rat, localized joint swelling, as well as limping and guarding of the limb, are well developed at 4 hours (Sluka et al., Pain, 59, 95–100 (1994)) when behavioral testing begins.
Knee joint circumference is measured in centimeters (cm) with a flexible tape measure around the center of the knee joint while the joint is held in extension as done with patients in the clinical setting as an indication of increases in joint volume. The knee joints of anesthetized rats are measured before (baseline) and four hours following injection of the knee joint with kaolin and carrageenan.
Temperature readings were documented numerically with a temperature probe after the rat is reanesthetized with sodium pentobarbital (50 mg/kg, i.p.) just prior to perfusion with aldehydes for histological preservation. Comparative temperature differences were made between the baseline temperature and the temperature four hours after induction of inflammation.

NMDA currents = details: patch clamp studies; cited from earlier work
rat arthritis model [3] = experiment: Paw withdrawal latency (PWL) to radiant heat in rat kaolin/carrageenan knee joint inflammation model; format: in vivo; details: for development of secondary hyperalgesia: spinal microdialysis pre-treatment, 4 hours after induction of arthritis
Description: All studies followed the guidelines of the Institute Animal Care and Use Committee, in accordance with the guidelines of the National Institutes of Health. All animals were hosted in a room with a constant ambient temperature of 22° C. and 12 hour light/dark cycle with free access to food and water. Eighty-five Sprague-Dawley rats (250–300 grams) total were used in experiments conducted for biochemical, behavioral, and immunocytochemistry studies. […] On Day 2 baseline behavioral testing was followed by infusion of agents for 1.5 hours (pretreatment) prior to induction of knee joint inflammation under brief anesthesia. Behavioral testing was repeated 4 hours after induction of joint inflammation. Anesthetized animals were either transcardially perfused with aldehydes for immunohistochemical studies or fresh, frozen tissues collected for biochemical studies.
A microdialysis fiber was implanted into the spinal dorsal horn of anesthetized rats (sodium pentobarbital, 50 mg/kg) one day prior to the induction of arthritis according to the procedure of Skilling et al. (J. Neurochem., 51:127–132 (1988)), as described in Sluka et al. (Neurosci. Lett., 145:141–144 (1992)). Briefly, a small midline incision was made in the skin over the T12 vertebral level. The vertebrae were cleared of muscle and two 1 millimeter (mm) holes were drilled in the lateral aspect of both sides of the T12 vertebrae to expose the L4 spinal segment. A microdialysis fiber ([…], 45,000 MW cut-off, Hospal, AN69, Hospal Industrie, Meyzieu, France), was passed transversely across the deep dorsal horn and stabilized with dental cement. The microdialysis fiber was then passed through the holes in the vertebrae and transversely through the dorsal horn of the spinal cord. A 2 mm section of the microdialysis fiber lies in the dorsal horn at the level of L3–4 segment. The tubing was coated with epoxy except for a permeable portion passing through the spinal grey matter. The microdialysis fiber was connected to PE20 tubing (Becton Dickinson and Company, San Mateo, Calif.) which was tunneled under the skin to the nape of the neck. Alternatively as a systemic control for drug administration, the microdialysis fiber was implanted only in the subcutaneous tissue over the back muscle and tunneled to the neck. Artificial cerebrospinal fluid (aCSF) was made as described by Sorkin et al. (J. Neurosci. Methods, 23, 131–138 (1988)) and was infused (5 microliters/minute) for 1.5 hours and then the tube was heat-sealed for use on the following day.
Dose response curves were generated for Genistein with animals receiving Genistein spinally at concentration of 0.2 mM (n=3), 0.5 mM (n=3), 1 mM (n=9), and 2 mM (n=3). Animals received Lavendustin A or B spinally at concentrations of 0.1 mM (n=3), 0.5 mM (n=3), and 1 mM (n=5) as a positive and negative control for Genistein. […] Daidzein was tested at a dose of 1 mM (n=3). […] Eight additional animals received the vehicle, 50% DMSO in aCSF, as a control.
as §1
Fifty-five rats were used for behavioral studies. Four hours after induction of the arthritis, the joint is swollen and increased withdrawal responses to radiant heat and spontaneous guarding of the limb were noted. The increased responsiveness to noxious stimuli indicates the presence of secondary hyperalgesia. […]

**Q.** With `C[C@@H]1C[C@@H]([C@H](O)CC2CC(=O)NC(=O)C2)C(=O)[C@@H](C)C1` [Cycloheximide] as the compound, how does the “staining for NR1 in spinal cord” value [1] read?
**A.** Its value is “did not totally reduce the staining to baseline”.

**Q.** What about the “staining for NR1 in spinal cord” value ([1]; listed as cycloheximide) of the same compound?
**A.** Its value is “reduced the increase in NR1 staining by about half”.

**Q.** Which “NMDA/ACPD-promoted release of TNFα” value (TNFα) does the source give for `COC(=O)[C@@]1(O)C[C@H]2O[C@]1(C)n1c3ccccc3c3c4c(c5c6ccccc6n2c5c31)C(=O)NC4` [K252a] here?
**A.** The value was “completely abolished”.

**Q.** Which joint circumference (rat arthritis model [2]) does the source give for `O=C(O)c1cc(N(Cc2ccccc2O)Cc2cc(O)ccc2O)ccc1O` [Lavendustin A] here?
**A.** Its joint circumference is “expected increases”.

**Q.** What about the joint temperature (rat arthritis model [2]) of the same compound?
**A.** The joint temperature was “expected increases”.

**Q.** And the “effect on NMDA currents” value (NMDA currents)?
**A.** Its value is “reversibly depresses NMDA currents”.

**Q.** And the “most effective dose in pre-treatment animals” value (rat arthritis model [3]; concentration inside the microdialysis fiber, spinal administration)?
**A.** Its value is 0.5 mM.

**Q.** And the “PWL decrease induced by knee joint inflammation” value (rat arthritis model [3]; spinal microdialysis pre-treatment 1.5 hours, PWL to radiant heat 4 hours after kaolin/carrageenan)?
**A.** The value was “significantly (p<0.05 versus 4 hours vehicle group) attenuated the PWL decreases”.

**Q.** And the “development of secondary hyperalgesia” value (rat arthritis model [3])?
**A.** The value was “significantly abrogated the development of secondary hyperalgesia”.

**Q.** With `O=C(O)c1cc(N(Cc2ccccc2O)Cc2ccccc2O)ccc1O` [Lavendustin B] as the compound, how does the “development of secondary hyperalgesia” value (rat arthritis model [3]) read?
**A.** Its value is “ineffective in altering the nociceptive outcome of knee joint inflammation”.
